Assay results from US20140045883A1, “ACK1 KINASE INHIBITION TO TREAT TRIPLE NEGATIVE BREAST CANCER” (H. Lee Moffitt Cancer Center and Research Institute, Inc., priority 2012, published 2014).
Read-outs that look alike come from different tables or passages of the source.

Experiments:
[1] = system: pTyr176-AKT; assay: Affinity Purification coupled ELISA for pTyr176-AKT in MDA-MB-231; format: cell-based; conditions: MDA-MB-231 cells treated with inhibitor
Description: FIG. 6 is a bar graph showing Affinity Purification coupled ELISA for pTyr176-AKT detection in TNBC derived cell line MDA-MB-231. MDA-MB-231 cell lysates were incubated with streptavidin beads with AKT peptide. The AKT peptides were eluted and phosphorylation was detected using ELISA.
Towards detecting pY176-AKT in TNBC derived cell lines, MDA-MB-231 (1×10^4 cells) were lysed in reaction buffer containing phosphatase and protease inhibitors and lysates were quantitated. Biotinylated AKT peptide was incubated with streptavidin beads for 1 hours, beads were washed and the AKT peptide coated beads were incubated with cell lysates for 1 hours at room temperature. The beads were washed in PBST and the bound peptides were eluted. To elute the bound biotinylated AKT peptide from Streptavidin Beads, Streptavidin Beads were resuspended in 10 mM NaCl containing solution followed by heating the mix at 75° C. for 2-3 minutes, as described in literature (33). The eluted AKT peptides were immobilized onto streptaviding plates and presence of phospho-peptides was detected by ELISA described above in step I.

[2] = biological target: Ack1 (Homo sapiens, UniProt Q07912); format: cell-based; conditions: MCF-7 and A2780-CP cells, AIM-100 overnight (3 μM), insulin or EGF stimulated
Description: (§1) FIGS. 3A-3B are images of immunoblots of lysates from serum starved MCF-7 and A2780-CP cells treated (or untreated) with insulin or EGF (10 ng/ml) and AIM-100 (3 μM, overnight) that were immunoblotted with pTyr176-AKT (top panel), pSer473-AKT (2nd panel), pThr308-AKT (3rd panel), pTyr284-Ack1 (4th panel) and tubulin (bottom panel).
(§2) To assess the potential inhibition of Ack1 activity, MCF-7 (breast) and A2780-CP (Ovary) cells were treated with AIM-100 overnight. Cells were either untreated or treated with Insulin (for 30 mins) or EGF (15 min) followed by immunoblotting of lysates with pTyr284-Ack1 antibody.

[3] = biological target: purified Ack1 kinase (Homo sapiens, UniProt Q07912); conditions: inhibitor 50 nM, Ack1 50 nM, 5 uM ATP, 1 hour
Description: The peptides sequence is derived from the region that is recognized by Ack1 leading to AKT Tyr176-phosphorylation and activation (13, 15, 17). The phospho-AKT peptide was used as a positive control and as a standard for quantitation of pT176-AKT in tissue samples.
The AKT peptides were diluted to final concentration of 1 uM in phosphate buffered saline (PBS) and immobilized onto streptavidin plates (R & D systems) for 1 hour. […] After 1 hour of incubation, plates were washed in PBST and secondary antibody (HRP-conjugated anti-rabbit antibody diluted in BSA) was added. After 1 hour, plates were washed in PBST and devoped using OPD substrate (Sigma) and read at 450 nm.

[4] = system: MDA-MB-468 cell line; assay: Cell growth assay (WST1); format: cell-based; conditions: MDA-MB-468, 72 hours
Description: (§3) Experiment was performed twice with 8 replicates, a representative data set is shown.
(§4) To determine whether inhibition of the Ack1/AKT signaling pathway affects TNBC-derived cancer cell proliferation, MDA-MB-231 and MDA-MB-468 cell lines were treated with increasing concentrations of PLX-4032 or AIM-100. A cell growth assay was performed by adding solution of WST1 to 96 wells (5×10^3 cells) and incubation for 1 h. The cell viability as a function of mitochondrial activity in living cells was measured spectrophotometrically at a wavelength of 450 nm.

[5] = system: MDA-MB-231 cell line; assay: Cell growth assay (WST1); format: cell-based; conditions: MDA-MB-231, 72 hours, read-out: IG50 (cell growth)
Description: as §3, §4

[6] = system: Ack1; assay: Ack1 autoactivation in transfected HEK293 cells (HA immunoprecipitation, pTyr immunoblot); conditions: HEK293 cells transfected with HA-tagged Ack1 WT/point mutants, 5 uM overnight
Description: Immunoprecipitation with HA-beads followed by immunoblotting with pTyr (top and middle panel) or Ack1 (bottom panel) antibodies was performed.
Site directed mutagenesis was performed and HA-tagged point mutants were generated. HEK293 cells were transfected, grown in growth factor free media, followed by immunoprecipitation with HA-beads.

[7] = system: AKT; assay: Immunoblot of AKT phosphorylation in insulin/EGF-treated MCF-7 and A2780-CP cells; format: cell-based; conditions: AIM-100 overnight (3 μM), insulin or EGF stimulated
Description: as §1, §2

[8] = system: xenograft tumor; assay: Xenograft tumor growth; conditions: in vivo

purified Ack1 kinase, sequence (Q07912 whole entry): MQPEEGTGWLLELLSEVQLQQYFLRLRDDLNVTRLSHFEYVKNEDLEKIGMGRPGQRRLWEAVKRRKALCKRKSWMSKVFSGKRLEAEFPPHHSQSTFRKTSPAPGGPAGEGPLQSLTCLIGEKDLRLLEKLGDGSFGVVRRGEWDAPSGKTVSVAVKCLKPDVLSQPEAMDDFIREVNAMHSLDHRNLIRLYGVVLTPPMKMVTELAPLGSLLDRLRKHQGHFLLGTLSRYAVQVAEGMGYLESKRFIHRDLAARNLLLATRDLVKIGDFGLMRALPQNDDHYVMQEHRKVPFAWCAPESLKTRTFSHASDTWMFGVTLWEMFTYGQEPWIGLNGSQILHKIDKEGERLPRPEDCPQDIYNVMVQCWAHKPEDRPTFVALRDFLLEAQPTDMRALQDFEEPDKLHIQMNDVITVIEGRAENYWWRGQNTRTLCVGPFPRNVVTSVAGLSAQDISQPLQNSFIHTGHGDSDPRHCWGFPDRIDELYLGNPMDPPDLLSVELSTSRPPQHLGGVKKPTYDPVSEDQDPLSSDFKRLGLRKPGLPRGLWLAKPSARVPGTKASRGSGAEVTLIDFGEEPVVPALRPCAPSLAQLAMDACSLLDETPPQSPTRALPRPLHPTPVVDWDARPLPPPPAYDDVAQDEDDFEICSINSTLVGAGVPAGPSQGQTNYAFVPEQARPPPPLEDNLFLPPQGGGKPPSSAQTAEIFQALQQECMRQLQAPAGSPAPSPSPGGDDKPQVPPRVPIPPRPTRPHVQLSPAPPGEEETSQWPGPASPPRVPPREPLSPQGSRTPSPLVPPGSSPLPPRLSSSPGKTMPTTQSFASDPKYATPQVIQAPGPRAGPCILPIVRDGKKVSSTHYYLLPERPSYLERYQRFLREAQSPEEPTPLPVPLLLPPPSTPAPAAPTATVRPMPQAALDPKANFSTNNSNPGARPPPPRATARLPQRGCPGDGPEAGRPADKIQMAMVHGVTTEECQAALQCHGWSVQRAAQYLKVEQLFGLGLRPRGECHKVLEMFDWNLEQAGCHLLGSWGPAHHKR
Ack1 (Homo sapiens, UniProt Q07912), sequence (Q07912 whole entry): as above

| Compound | pTyr176-AKT levels (Affinity Purification Coupled ELISA) [1] | endogenous pTyr284-Ack1 levels [2] | AKT Tyr176-phosphorylation (ELISA) [3] | cellular cytotoxicity (in words) [4] | IC50 [5] | Ack1 activation (pTyr immunoblot) [6] | AKT Tyr176/Ser473 and Thr308-phosphorylations [7] | xenograft tumor growth [8] | IC50 ([4]; Homo sapiens, read-out: IG50 (cell growth)) | IC50 ([5]; Homo sapiens) |
| --- | --- | --- | --- | --- | --- | --- | --- | --- | --- | --- |
| c1ccc(-c2oc3ncnc(NC[C@@H]4CCCO4)c3c2-c2ccccc2)cc1 [AIM-100] | significant decrease | significantly decreased | significant decrease | rather resistant | ~16 µM | completely abrogated Ack1 activation | significant decrease | suppresses | – | – |
| CCCS(=O)(=O)Nc1ccc(F)c(C(=O)c2c[nH]c3ncc(-c4ccc(Cl)cc4)cc23)c1F [PLX4032, Vemurafenib] | significant decrease | – | – | – | – | completely abrogated Ack1 activation | – | – | ~13 µM | ~13 µM |
